The text below walks through data of PubChem BioAssay (NCI).

Among the test systems are SK-MEL-28 melanoma; RXF 393 renal; SW-620 colon; SF-539 CNS; RPMI-8226 leukemia; MDA-MB-231 breast; M14 melanoma; UACC-257 melanoma; COLO 205 colon; LOX IMVI melanoma.
Common to all, as to experiment: NCI tumour cell line growth inhibition, 48 h

Molecules are shown by their SMILES. Values joined by “and” are separate entries in the source; they are usually repeats but may differ in a detail not shown here. Equal entries are not always repeated.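 Following 48 hours of exposure in 96-well plates, responses at five concentrations were used to interpolate endpoints linearly. Abbreviation: GI50, concentration required for 50% inhibition of growth. TGI denotes the concentration required for complete inhibition of growth.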 Bounds are passed on as bounds.

Turning to `C=C1C(=O)C2(C)OC2(C)C1C(=O)O` (stereo not given), the TGI in the assay with SK-MEL-28 melanoma, with RXF 393 renal, with SW-620 colon, in the assay with SF-539 CNS, in the assay on RPMI-8226 leukemia and in the assay on MDA-MB-231 breast was over 100 µM each time. The TGI with M14 melanoma, in the assay on UACC-257 melanoma, with COLO 205 colon and with LOX IMVI melanoma was over 100 µM in each case.
For `O=C(CSc1ncc(-c2ccccc2)n1-c1ccccc1)Nc1ccc(-c2nc3ccccc3s2)cc1`, the GI50 in the assay with RXF 393 renal was 11.2 µM; with SF-539 CNS, 6.25 µM; with RPMI-8226 leukemia it was over 100 µM; with MDA-MB-231 breast it was 21.4 µM; in the assay with COLO 205 colon, over 100 µM; with LOX IMVI melanoma, 5.31 µM. The TGI with RXF 393 renal is 47.4 µM; with SF-539 CNS, over 100 µM; in the assay on RPMI-8226 leukemia, over 100 µM; in the assay on MDA-MB-231 breast, over 100 µM; in the assay with COLO 205 colon it was over 100 µM; in the assay with LOX IMVI melanoma, over 100 µM.
Regarding `CC(=O)C(C=O)C(C)=O.CC(=O)CC(C)=O.CC(=O)CC(C)=O.[Ru]`, the GI50 in the assay with SK-MEL-28 melanoma is 48.8 µM; in the assay on RXF 393 renal, 40.9 µM; in the assay on SW-620 colon, 15.6 µM; in the assay on SF-539 CNS, 3.8 µM; with MDA-MB-231 breast, 15.7 µM; in the assay with M14 melanoma, 49.4 µM. The GI50 with UACC-257 melanoma is 32.9 µM; in the assay with COLO 205 colon, 29.9 µM; with LOX IMVI melanoma, 13.6 µM. Further, the TGI was over 100 µM with SK-MEL-28 melanoma; over 100 µM in the assay with RXF 393 renal; 69 µM in the assay with SW-620 colon; 26.3 µM in the assay on SF-539 CNS; 68.8 µM in the assay with MDA-MB-231 breast; over 100 µM in the assay on M14 melanoma. The results for the TGI in the assay with UACC-257 melanoma, in the assay with COLO 205 colon and in the assay on LOX IMVI melanoma were over 100 µM, over 100 µM and 80.3 µM, respectively.
In the case of `O=C1C(Br)=CC2(C=C1Br)CCNc1c(O)c3c4c(c12)=NCCC=4C=N3`, the TGI with SK-MEL-28 melanoma was 0.416 µM; in the assay with RXF 393 renal it was 0.217 µM; in the assay on SW-620 colon it was 0.105 µM; in the assay with SF-539 CNS it was 0.557 µM; in the assay with RPMI-8226 leukemia, 0.212 µM; in the assay on MDA-MB-231 breast, 0.409 µM. Further, the TGI with M14 melanoma was determined as 0.212 µM; with UACC-257 melanoma, 0.25 µM; in the assay with COLO 205 colon it was 0.0289 µM; with LOX IMVI melanoma it was 0.254 µM.
In the case of `COC(=O)C1(C)CCCC2(C)c3cc(OC)ccc3C(=O)C(Br)C12` (stereo not given), the TGI is over 10 µM with SK-MEL-28 melanoma; over 10 µM in the assay on RXF 393 renal; 4.39 µM in the assay on SW-620 colon; over 10 µM in the assay with SF-539 CNS; 6.53 µM in the assay on RPMI-8226 leukemia; over 10 µM in the assay on MDA-MB-231 breast. Also, the TGI in the assay with M14 melanoma is over 10 µM; in the assay on UACC-257 melanoma, over 10 µM; with COLO 205 colon, 7.29 µM; with LOX IMVI melanoma, over 10 µM.
`COc1cccc(/C=C\c2ccnc3ccccc23)c1`: the TGI in the assay on SK-MEL-28 melanoma, in the assay with RXF 393 renal, with SW-620 colon, with SF-539 CNS, in the assay on RPMI-8226 leukemia and in the assay on MDA-MB-231 breast was over 10 µM in each case. For the same compound, the TGI in the assay with M14 melanoma, in the assay with UACC-257 melanoma, with COLO 205 colon and with LOX IMVI melanoma was over 10 µM in each case.
As to `C#Cc1ccc(-n2c(/C=C/c3ccc4ccccc4c3)nc3ncccc3c2=O)cc1`, the GI50 was 4.33 µM in the assay with SK-MEL-28 melanoma; 1.79 µM in the assay with RXF 393 renal; 2.91 µM with SF-539 CNS; 0.451 µM in the assay on RPMI-8226 leukemia; 3.74 µM with MDA-MB-231 breast; 0.517 µM in the assay with LOX IMVI melanoma. Besides, the TGI with SK-MEL-28 melanoma was over 100 µM; with RXF 393 renal, 5.47 µM; in the assay with SF-539 CNS, over 100 µM; with RPMI-8226 leukemia it was over 100 µM; in the assay on MDA-MB-231 breast, over 100 µM; with LOX IMVI melanoma, 3.11 µM.
As to `O=C(Nc1ccccc1)Nc1ccc(Cl)c(Cl)c1`, the GI50 in the assay with SK-MEL-28 melanoma is 4.55 µM; in the assay on RXF 393 renal it was 6.31 µM; in the assay with SW-620 colon, 3.58 µM; with RPMI-8226 leukemia, 2.83 µM; in the assay on MDA-MB-231 breast, 3.9 µM; in the assay on M14 melanoma it was 4.64 µM. For the same compound, the results for the GI50 in the assay with UACC-257 melanoma, in the assay with COLO 205 colon and with LOX IMVI melanoma were 3.73 µM, 3.04 µM and 2.51 µM, respectively. Besides, the TGI in the assay on SK-MEL-28 melanoma is over 100 µM; with RXF 393 renal, 33.8 µM; with SW-620 colon, over 100 µM; with RPMI-8226 leukemia, 9.83 µM; in the assay with MDA-MB-231 breast, 25.4 µM; in the assay with M14 melanoma, over 100 µM. Besides, the TGI in the assay on UACC-257 melanoma was found to be 32.9 µM; with COLO 205 colon it was 11.1 µM; in the assay on LOX IMVI melanoma, 16.3 µM.
As for `Cc1cn2c(/C=C3/C(=O)Nc4ccc(Cl)cc43)c(C)nc2s1`, the GI50 in the assay on SK-MEL-28 melanoma is 17 µM; in the assay on RXF 393 renal, 6.74 µM; in the assay with SW-620 colon, 0.22 µM; in the assay on SF-539 CNS, 0.124 µM; in the assay with RPMI-8226 leukemia, 0.0137 µM; with MDA-MB-231 breast, 0.678 µM. The GI50 with M14 melanoma is under 0.028 µM; with UACC-257 melanoma it was 12.9 µM; with LOX IMVI melanoma it was 0.0706 µM. Moreover, the TGI with SK-MEL-28 melanoma was over 54.7 µM; in the assay on RXF 393 renal, over 100 µM; with SW-620 colon, over 67.7 µM; in the assay with SF-539 CNS it was 0.692 µM; in the assay with RPMI-8226 leukemia, over 100 µM; in the assay with MDA-MB-231 breast, 24.8 µM. The TGI with M14 melanoma is over 45.7 µM; in the assay on UACC-257 melanoma, over 100 µM; in the assay on LOX IMVI melanoma it was 54.5 µM.
In the case of `Fc1ccc(C2C3CCOc4c(ccc5ccccc45)C3=NN2c2ccccc2)cc1` (stereo not given), the GI50 in the assay with SK-MEL-28 melanoma was over 88.7 µM; in the assay on RXF 393 renal, over 63.6 µM; in the assay on SW-620 colon, over 100 µM; in the assay with RPMI-8226 leukemia, 63.5 µM; in the assay with MDA-MB-231 breast it was 43.8 µM; in the assay on M14 melanoma, over 100 µM. In addition, the figures for the GI50 with UACC-257 melanoma, with COLO 205 colon and with LOX IMVI melanoma were 43.9 µM, over 100 µM and 88.4 µM, respectively. For the same compound, the TGI in the assay with SK-MEL-28 melanoma, in the assay on RXF 393 renal, with SW-620 colon, in the assay on RPMI-8226 leukemia, with MDA-MB-231 breast and in the assay with M14 melanoma was over 100 µM each time. Moreover, the TGI with UACC-257 melanoma, in the assay with COLO 205 colon and with LOX IMVI melanoma was over 100 µM in each case.
Take `CCN(CCO)CCCOc1ccc2c(Nc3cc(CC(=O)Nc4cccc(F)c4)[nH]n3)ncnc2c1`: the GI50 with SK-MEL-28 melanoma is 16.4 µM; in the assay on SW-620 colon, 7.23 µM; in the assay on RPMI-8226 leukemia, 15.4 µM; in the assay on MDA-MB-231 breast, 19.2 µM; in the assay on M14 melanoma it was 20.9 µM; in the assay with UACC-257 melanoma, 12.4 µM. Also, the GI50 was 0.034 µM and 0.0244 µM in the assay on COLO 205 colon; 10.6 µM with LOX IMVI melanoma. For the same compound, the TGI is 31.4 µM with SK-MEL-28 melanoma; 29.8 µM and > 4.11 µM in the assay on SW-620 colon; 22.2 µM and > 2.7 µM with SF-539 CNS; 47.8 µM and > 2.17 µM in the assay on RPMI-8226 leukemia; over 51.5 µM with MDA-MB-231 breast; over 56.2 µM in the assay with M14 melanoma. For the same compound, the TGI was 29.2 µM and > 2.56 µM in the assay with UACC-257 melanoma; 1.22 µM with COLO 205 colon; 32.2 µM and > 3.26 µM in the assay on LOX IMVI melanoma.
For `O=C1N=C(Nc2nc(-c3csc(NC4=NC(=O)/C(=C\c5ccc(Cl)cc5)S4)n3)cs2)S/C1=C/c1ccc(Cl)cc1`, the GI50 in the assay on SK-MEL-28 melanoma was 42.8 µM; in the assay on RXF 393 renal, 11.6 µM; in the assay with SW-620 colon, 39 µM; in the assay with SF-539 CNS it was 15.4 µM; in the assay with MDA-MB-231 breast, 10.2 µM; in the assay on M14 melanoma it was 3.03 µM. Besides, the results for the GI50 with UACC-257 melanoma, in the assay with COLO 205 colon and in the assay with LOX IMVI melanoma were 5.14 µM, 29.9 µM and 8.34 µM, respectively. The TGI in the assay with SK-MEL-28 melanoma is over 50 µM; in the assay on RXF 393 renal it was over 50 µM; with SW-620 colon, over 50 µM; in the assay with SF-539 CNS, 46.2 µM; in the assay with MDA-MB-231 breast, 35 µM; in the assay on M14 melanoma, 11.5 µM. For the same compound, the results for the TGI with UACC-257 melanoma, in the assay on COLO 205 colon and with LOX IMVI melanoma were 18.1 µM, over 50 µM and over 50 µM, respectively.
In the case of `O=C(O)c1cn(C2CC2)c2cc(N3CCN(Cc4ccc5ccccc5c4O)CC3)c(F)cc2c1=O`, the GI50 in the assay with SK-MEL-28 melanoma was 3.71 µM; in the assay with RXF 393 renal, 2.29 µM; with MDA-MB-231 breast, 3.41 µM; in the assay with M14 melanoma, 3.18 µM; in the assay with COLO 205 colon, 3.27 µM; with LOX IMVI melanoma it was 3.13 µM. Besides, the TGI in the assay on SK-MEL-28 melanoma was over 100 µM; in the assay on RXF 393 renal, 5.64 µM; in the assay on MDA-MB-231 breast, over 100 µM; in the assay on M14 melanoma, over 100 µM; in the assay on COLO 205 colon, over 100 µM; in the assay with LOX IMVI melanoma it was over 100 µM.
Take `CCCCCCSc1nc(COC(=O)NC)c(COC(=O)NC)n1C`: the TGI with SK-MEL-28 melanoma, with SW-620 colon, in the assay on SF-539 CNS, in the assay on RPMI-8226 leukemia, in the assay on MDA-MB-231 breast and in the assay with M14 melanoma was over 100 µM in each case. The TGI in the assay with UACC-257 melanoma, in the assay with COLO 205 colon and with LOX IMVI melanoma was over 100 µM throughout.
With `CC1COCCN1CC#CCOC(=O)c1cc2ccccc2oc1=O` (stereo not given), the GI50 in the assay with SK-MEL-28 melanoma, in the assay with RXF 393 renal, with SW-620 colon, with SF-539 CNS, in the assay with RPMI-8226 leukemia and with MDA-MB-231 breast was over 100 µM each time. The GI50 with UACC-257 melanoma, in the assay with COLO 205 colon and in the assay with LOX IMVI melanoma was over 100 µM each time. Also, the TGI in the assay on SK-MEL-28 melanoma, in the assay on RXF 393 renal, with SW-620 colon, in the assay on SF-539 CNS, with RPMI-8226 leukemia and in the assay on MDA-MB-231 breast was over 100 µM throughout. In addition, the TGI with UACC-257 melanoma, with COLO 205 colon and in the assay with LOX IMVI melanoma was over 100 µM in each case.
